Results published in patent US20180243274A1, “ANTIBACTERIAL COMPOSITIONS” (WOCKHARDT LIMITED, priority 2013, published 2018).

Legend:
[1] = test system: E. coli NCTC 13353 producing CTX-M15 and OXA 1 beta-lactamase enzymes; experiment: Time kill study against E. coli NCTC 13353; type: cell-based; settings: for effect on bacterial counts when used alone: throughout the duration of the study
Method: (§1) The synergistic killing effect of the combinations according to invention was studied by performing time kill studies. In a typical time kill study, the freshly grown cultures were diluted to the required cell density (initial starting inoculum) in Cation adjusted Muller Hinton broth medium (BD, USA). The antibacterial agents (either alone or in combination) at the required concentrations were added into the culture-containing medium. The samples were incubated under shaking condition (120 rpm) at 37° C. Enumeration of viable bacterial count was done every 2 hour by diluting in normal saline and plating on to the Tryptic Soya Agar plates (BD, USA). The plates were incubated for 24 hours to arrive at the viable bacterial count. The results are expressed in terms of Log 10 CFU per ml. In general, the decrease of 1 Log 10 CFU/ml corresponds to 90% killing of bacteria. Similarly, 2 Log 10 CFU/ml reductions indicates to 99% killing of bacteria and 3 Log 10 CFU/ml reductions is equal to 99.9% killing of bacteria.
E. coli NCTC 13353 produces resistant CTX-M15 and OXA 1 beta-lactamase enzymes.

[2] = test system: clinical isolate of E. coli M50 producing CMY 6, DHA—1/2 beta-lactamase enzymes; experiment: Time kill study against clinical isolate E. coli M50; type: cell-based; settings: for effect on bacterial counts when used alone: throughout the duration of the study
Method: as §1
The results on antibacterial activity of the antibacterial agent selected from cefixime, cefpodoxime, ceftibuten or cefuroxime alone and in combination with a compound of Formula (I) against E. coli M50 are given in Table 2. E. coli M50 produces resistant CMY 6, DHA-½ beta-lactamase enzymes.

Row | Structure (SMILES) | Bacterial count (Log10 CFU/ml) 0 hours ([1]; agent alone 1 mcg/ml) | Bacterial count (Log10 CFU/ml) 2 hours ([1]; agent alone 1 mcg/ml) | Bacterial count (Log10 CFU/ml) 4 hours ([1]; agent alone 1 mcg/ml) | Bacterial count (Log10 CFU/ml) 6 hours ([1]; agent alone 1 mcg/ml) | Bacterial count (Log10 CFU/ml) 24 hours ([1]; agent alone 1 mcg/ml) | Bacterial count (Log10 CFU/ml) 0 hour ([2]; agent alone 4 mcg/ml) | Bacterial count (Log10 CFU/ml) 2 hours ([2]; agent alone 4 mcg/ml) | Bacterial count (Log10 CFU/ml) 4 hours ([2]; agent alone 4 mcg/ml) | Bacterial count (Log10 CFU/ml) 6 hours ([2]; agent alone 4 mcg/ml) | Bacterial count (Log10 CFU/ml) 8 hours ([2]; agent alone 4 mcg/ml) | effect on bacterial counts when used alone [1] | effect on bacterial counts when used alone [2] | further results
1 | C=CC1=C(C(=O)O)N2C(=O)[C@@H](NC(=O)/C(=N\OCC(=O)O)c3csc(N)n3)[C@H]2SC1 [Cefixime, cefixime] | 7.23 Log10 CFU/ml | 8.65 Log10 CFU/ml | 8.90 Log10 CFU/ml | 8.84 Log10 CFU/ml | 9.06 Log10 CFU/ml | 7.77 Log10 CFU/ml | 8.84 Log10 CFU/ml | 9.20 Log10 CFU/ml | 8.90 Log10 CFU/ml | 9.30 Log10 CFU/ml | – | – | –
2 | COCC1=C(C(=O)O)N2C(=O)[C@@H](NC(=O)/C(=N\OC)c3csc(N)n3)[C@H]2SC1 [Cefpodoxime, cefpodoxime] | 7.23 Log10 CFU/ml | 8.17 Log10 CFU/ml | 8.74 Log10 CFU/ml | 8.90 Log10 CFU/ml | 9.06 Log10 CFU/ml | 7.77 Log10 CFU/ml | 8.60 Log10 CFU/ml | 9.04 Log10 CFU/ml | 9.16 Log10 CFU/ml | 9.19 Log10 CFU/ml | – | – | –
3 | Nc1nc(/C(=C/CC(=O)O)C(=O)N[C@@H]2C(=O)N3C(C(=O)O)=CCS[C@H]23)cs1 [Ceftibuten, ceftibuten] | 7.23 Log10 CFU/ml | 8.10 Log10 CFU/ml | 8.7 Log10 CFU/ml | 9.04 Log10 CFU/ml | 9.51 Log10 CFU/ml | 7.77 Log10 CFU/ml | 8.48 Log10 CFU/ml | 8.70 Log10 CFU/ml | 9.08 Log10 CFU/ml | 9.20 Log10 CFU/ml | did not reduce the bacterial counts | did not reduce the bacterial counts | –
4 | CO/N=C(\C(=O)N[C@@H]1C(=O)N2C(C(=O)O)=C(COC(N)=O)CS[C@H]12)c1ccco1 [Cefuroxime, cefuroxime] | 7.23 Log10 CFU/ml | 8.25 Log10 CFU/ml | 8.80 Log10 CFU/ml | 9.38 Log10 CFU/ml | 9.48 Log10 CFU/ml | 7.77 Log10 CFU/ml | 8.58 Log10 CFU/ml | 9.02 Log10 CFU/ml | 9.2 Log10 CFU/ml | 9.50 Log10 CFU/ml | did not reduce the bacterial counts | did not reduce the bacterial counts | –
5 | O=C(NOC[C@@H]1CCCN1)[C@@H]1CC[C@@H]2CN1C(=O)N2OS(=O)(=O)O [Compound of Formula (I), (2S, 5R)-7-oxo-N-[(2S)-pyrrolidin-2-ylmethoxy]-6-(sulfooxy)-1,6-diazabicyclo[3.2.1]octane-2-carboxamide] | – | – | – | – | – | 7.77 Log10 CFU/ml | 8.02 Log10 CFU/ml | 8.09 Log10 CFU/ml | 8.07 Log10 CFU/ml | 8.08 Log10 CFU/ml | did not reduce the bacterial counts | did not reduce the bacterial counts | Bacterial count (Log10 CFU/ml) 0 hours ([1]; alone 4 mcg/ml): 7.23 Log10 CFU/ml; Bacterial count (Log10 CFU/ml) 2 hours ([1]; alone 4 mcg/ml): 7.17 Log10 CFU/ml; Bacterial count (Log10 CFU/ml) 4 hours ([1]; alone 4 mcg/ml): 7.14 Log10 CFU/ml; Bacterial count (Log10 CFU/ml) 6 hours ([1]; alone 4 mcg/ml): 7.11 Log10 CFU/ml; Bacterial count (Log10 CFU/ml) 24 hours ([1]; alone 4 mcg/ml): 7.87 Log10 CFU/ml
6 | C[C@@H](O)[C@H]1C(=O)N2C(C(=O)O)=C(SCCN=CN)C[C@H]12 [Imipenem] | 7.23 Log10 CFU/ml | 4.95 Log10 CFU/ml | 4.47 Log10 CFU/ml | 4.39 Log10 CFU/ml | 7.34 Log10 CFU/ml | – | – | – | – | – | – | – | Bacterial count (Log10 CFU/ml) 0 hour ([2]; alone 1 mcg/ml): 7.77 Log10 CFU/ml; Bacterial count (Log10 CFU/ml) 2 hours ([2]; alone 1 mcg/ml): 5.60 Log10 CFU/ml; Bacterial count (Log10 CFU/ml) 4 hours ([2]; alone 1 mcg/ml): 7.47 Log10 CFU/ml; Bacterial count (Log10 CFU/ml) 6 hours ([2]; alone 1 mcg/ml): 8.07 Log10 CFU/ml; Bacterial count (Log10 CFU/ml) 8 hours ([2]; alone 1 mcg/ml): 8.47 Log10 CFU/ml
